Results on eleven compounds are retold here after ChEMBL document CHEMBL1201862, “PubChem BioAssay data set” (2004).

Among the test systems are HOP-62; HOP-92; IGROV-1; KM12; LOX IMVI; MCF7; Malme-3M; NCI/ADR-RES; OVCAR-3; OVCAR-4; RPMI-8226; RXF 393; SK-MEL-28; SK-OV-3; SW-620; UACC-257; UACC-62; MOLT-4; NCI-H522; SF-268.
What all share (assay): NCI-60 cell line screen, 48 h

SMILES strings stand for the structures.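 Step 1: Grow cells in 96-well plates. Step 2: Expose to compound for 48 hours at 5 concentrations. Step 3: Interpolate endpoints linearly; if unreached, use highest concentration. Abbreviation: GI50, concentration required for 50% inhibition of growth.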 The source made the active and inactive calls. No stated cut-off is given here; in the data, active = GI50 up to about 1.1 µM and inactive = higher. Some results are limits rather than exact numbers.

For `CC1OC2=N[C@@H]1C(=O)N[C@@H](Cc1ccccc1)C1=N[C@H](C(=O)N[C@@H](Cc3ccccc3)C3=N[C@H](C(=O)N[C@H]2Cc2ccccc2)C(C)O3)C(C)O1` (stereo not given in full), the GI50 was 48.3 µM (inactive) with HOP-62; 18.9 µM (inactive) in the assay with HOP-92; 29.4 µM (inactive) in the assay on IGROV-1; 61.1 µM (inactive) in the assay on KM12; 17 µM (inactive) in the assay with LOX IMVI; 45.9 µM (inactive) in the assay with MCF7. Besides, the GI50 in the assay on Malme-3M was 22.4 µM (inactive); in the assay on NCI/ADR-RES it was 44.6 µM (inactive); in the assay with OVCAR-3, 28.2 µM (inactive); in the assay on OVCAR-4 it was 46.2 µM (inactive); with RPMI-8226 it was 13.5 µM (inactive); in the assay with RXF 393, 31.1 µM (inactive). For the same compound, the GI50 with SK-MEL-28 was 26.5 µM (inactive); in the assay with SK-OV-3, 49.7 µM (inactive); in the assay with SW-620, 37.2 µM (inactive); with UACC-257, 30.4 µM (inactive); in the assay on UACC-62, 30.8 µM (inactive).

With `COc1cc(C2(c3ncc[nH]3)SSSCC2O)ccc1O` (stereo not given), the GI50 was > 66.4 µM (inactive) in the assay with HOP-62; 6.25 µM (inactive) in the assay on HOP-92; 47.2 µM (inactive) with IGROV-1; > 100 µM (inactive) in the assay on KM12; 19.1 µM (inactive) in the assay with LOX IMVI; 39.6 µM (inactive) in the assay on MCF7. For the same compound, the GI50 in the assay on MOLT-4 is 16.5 µM (inactive); in the assay with NCI-H522, 29.4 µM (inactive); in the assay on NCI/ADR-RES, > 40.6 µM (inactive); in the assay on OVCAR-3, 32.2 µM (inactive); in the assay with OVCAR-4, 22.2 µM (inactive); in the assay on RPMI-8226 it was 22.6 µM (inactive). Also, the GI50 in the assay with RXF 393 was 30.1 µM (inactive); with SF-268, 15.8 µM (inactive); in the assay on SK-MEL-28, > 100 µM (inactive); with SK-OV-3, 66.4 µM (inactive); in the assay on SW-620, 33 µM (inactive); in the assay on UACC-257, 18.4 µM (inactive). For the same compound, the GI50 in the assay on UACC-62 was 22.6 µM (inactive).

Take `CC(=O)OCCCCn1cc(Cn2ccc(=O)n(Cc3cn(CCCCOC(C)=O)nn3)c2=O)nn1`: the GI50 in the assay with HOP-62, in the assay with HOP-92, in the assay with IGROV-1, in the assay on KM12, in the assay with LOX IMVI and with MCF7 was > 100 µM (inactive) each time. The GI50 with MOLT-4, in the assay with Malme-3M, in the assay with NCI/ADR-RES, in the assay on OVCAR-3, in the assay on OVCAR-4 and in the assay on RPMI-8226 was > 100 µM (inactive) each time. Further, the GI50 in the assay on RXF 393, in the assay on SF-268, in the assay on SK-MEL-28, with SK-OV-3, with SW-620 and in the assay with UACC-257 was > 100 µM (inactive) in each case. For the same compound, the GI50 in the assay with UACC-62 was > 100 µM (inactive).

Consider `c1ccc(/N=C2\S/C(=N\C3CCCCC3)N(C3CCCCC3)\C2=N/c2ccccc2)cc1`, for which the GI50 is > 100 µM (inactive) in the assay with HOP-62; > 100 µM (inactive) with IGROV-1; > 100 µM (inactive) with KM12; > 100 µM (inactive) in the assay with MCF7; 37.8 µM (inactive) with MOLT-4; > 100 µM (inactive) in the assay on Malme-3M. The GI50 in the assay on NCI-H522, in the assay with NCI/ADR-RES, in the assay on OVCAR-3, with RPMI-8226, in the assay with RXF 393 and in the assay on SK-MEL-28 was > 100 µM (inactive) throughout. The GI50 in the assay on SK-OV-3 and in the assay on UACC-62 was > 100 µM (inactive) in each case.

For `CC(C)=CCC/C(C)=C/CCC(C(=O)COCc1ccccc1)P1(=O)OC(C)(C)CN1C(C)(C)C` (stereo not given), the GI50 with HOP-62 was > 100 µM (inactive); in the assay with IGROV-1, 91.4 µM (inactive); in the assay with KM12, 36 µM (inactive); in the assay with LOX IMVI it was 27.5 µM (inactive); in the assay on MCF7 it was 33.8 µM (inactive); with MOLT-4, 15.9 µM (inactive). Besides, the GI50 is 32.6 µM (inactive) in the assay on NCI-H522; 31.5 µM (inactive) with NCI/ADR-RES; 37.6 µM (inactive) in the assay with OVCAR-3; 23.9 µM (inactive) in the assay on OVCAR-4; 87.5 µM (inactive) in the assay with RXF 393; 33.1 µM (inactive) with SF-268. Moreover, the GI50 in the assay on SK-MEL-28 was 62.1 µM (inactive); in the assay with SK-OV-3 it was > 100 µM (inactive); with SW-620, > 100 µM (inactive); in the assay with UACC-257 it was 84.1 µM (inactive); in the assay on UACC-62 it was > 100 µM (inactive).

For `Clc1nc(Cl)nc(Nc2cccc3ccccc23)n1`, the GI50 with HOP-62, with IGROV-1, in the assay on KM12, in the assay with LOX IMVI, in the assay with MCF7 and in the assay with MOLT-4 was > 10 µM (inactive) throughout. The GI50 with Malme-3M is > 10 µM (inactive); in the assay with NCI-H522 it was > 10 µM (inactive); in the assay with NCI/ADR-RES, > 10 µM (inactive); in the assay on OVCAR-3, 0.0436 µM (active); in the assay on OVCAR-4 it was > 10 µM (inactive); with RPMI-8226 it was > 10 µM (inactive). In addition, the GI50 with RXF 393, in the assay with SF-268, in the assay with SK-MEL-28, in the assay with SK-OV-3, in the assay on SW-620 and in the assay on UACC-62 was > 10 µM (inactive) each time.

Consider `O=C1CCCCC[C@]12SC[C@H]1CON=C12`, for which the GI50 in the assay with HOP-92 is 12.9 µM (inactive); in the assay on IGROV-1 it was 47.5 µM (inactive); with KM12 it was 60.3 µM (inactive); with LOX IMVI, 35.2 µM (inactive); in the assay on MCF7, 21.9 µM (inactive); with MOLT-4, 36.3 µM (inactive). The GI50 was 18.8 µM (inactive) in the assay on Malme-3M; 22.6 µM (inactive) with NCI-H522; 25.9 µM (inactive) with NCI/ADR-RES; 89.7 µM (inactive) in the assay with OVCAR-3; 73.8 µM (inactive) with OVCAR-4; 27.2 µM (inactive) in the assay with RPMI-8226. The GI50 in the assay with RXF 393 was 21.1 µM (inactive); in the assay on SK-MEL-28 it was 27.8 µM (inactive); in the assay on SK-OV-3, 37.4 µM (inactive); in the assay with SW-620 it was 50.8 µM (inactive); in the assay with UACC-257, 78.2 µM (inactive); with UACC-62 it was 14.5 µM (inactive).

Consider `O=C1CSC(c2c(O)ccc3ccccc23)N1n1c(S)nnc(/C=C/c2c(O)ccc3ccccc23)c1=O` (stereo not given), for which the GI50 in the assay on HOP-62 is 4.84 µM (inactive); in the assay on HOP-92, 16.3 µM (inactive); with IGROV-1, 2.28 µM (inactive); in the assay with LOX IMVI, 1.44 µM (inactive); in the assay with MCF7 it was 0.451 µM (active); with MOLT-4, 17.9 µM (inactive). Also, the GI50 with Malme-3M was 2.22 µM (inactive); in the assay with NCI-H522 it was 1.14 µM (inactive); in the assay on NCI/ADR-RES, 0.851 µM (active); in the assay with OVCAR-3 it was 0.387 µM (active); with OVCAR-4, 0.583 µM (active); with RPMI-8226, 1.26 µM (inactive). Besides, the GI50 in the assay on RXF 393 is 1.45 µM (inactive); in the assay with SF-268 it was 0.771 µM (active); in the assay with SW-620 it was 0.753 µM (active); in the assay on UACC-257, 1.43 µM (inactive); in the assay with UACC-62, 0.705 µM (active).

As to `COC(=O)c1c(O)ccc2c1c1c(n2Cc2cccc(C)c2)C(=O)c2ccccc2C1`, the GI50 is 10.4 µM (inactive) in the assay on HOP-62; 42.6 µM (inactive) with HOP-92; 42.7 µM (inactive) with IGROV-1; 19.8 µM (inactive) in the assay with LOX IMVI; 27.9 µM (inactive) with MCF7; 17.1 µM (inactive) in the assay on MOLT-4. In addition, the GI50 with Malme-3M was 13.5 µM (inactive); in the assay with NCI/ADR-RES, 15.5 µM (inactive); in the assay on OVCAR-3, 12.6 µM (inactive); in the assay with OVCAR-4, 0.126 µM (active); in the assay with RPMI-8226 it was 12 µM (inactive); in the assay with RXF 393, 11.9 µM (inactive). The GI50 in the assay on SF-268 is 28 µM (inactive); with SK-MEL-28, 0.295 µM (active); with SK-OV-3, > 75 µM (inactive); with SW-620, 26.2 µM (inactive); in the assay with UACC-257, 46.1 µM (inactive); with UACC-62, 32.6 µM (inactive).

On to `O=C1C2=C(C3=NCCc4c[nH]c1c43)c1c(Br)cc(Br)cc1CCN2`, for which the GI50 with HOP-62 is 14.6 µM (inactive); in the assay with HOP-92 it was 9.18 µM (inactive); in the assay with IGROV-1, 4.06 µM (inactive); in the assay on KM12 it was 2.56 µM (inactive); with LOX IMVI, 1.23 µM (inactive); with MCF7, 1.8 µM (inactive). Further, the GI50 was 1.35 µM (inactive) with MOLT-4; 1.66 µM (inactive) with NCI-H522; 4.71 µM (inactive) in the assay on NCI/ADR-RES; 2.77 µM (inactive) in the assay with OVCAR-3; 2.22 µM (inactive) in the assay with OVCAR-4; 1.24 µM (inactive) in the assay with RPMI-8226. The GI50 was 4.75 µM (inactive) in the assay on RXF 393; 2.59 µM (inactive) in the assay with SF-268; 8.49 µM (inactive) in the assay with SK-MEL-28; 12.2 µM (inactive) with SK-OV-3; 2.24 µM (inactive) in the assay with SW-620; 1.5 µM (inactive) with UACC-257. For the same compound, the GI50 in the assay with UACC-62 was 1.14 µM (inactive).

Regarding `Cc1nc(-c2cccnc2)sc1C(=O)CC(=O)C(=O)Nc1cccc(NC(=O)C(=O)CC(=O)c2sc(-c3cccnc3)nc2C)n1`, the GI50 in the assay on HOP-92, with IGROV-1, in the assay on KM12, in the assay with LOX IMVI, with MCF7 and in the assay with MOLT-4 was > 100 µM (inactive) in each case. In addition, the GI50 in the assay on Malme-3M, in the assay with NCI-H522, in the assay on NCI/ADR-RES, with OVCAR-3, in the assay on OVCAR-4 and with RPMI-8226 was > 100 µM (inactive) in each case. For the same compound, the GI50 with RXF 393, in the assay with SF-268, in the assay with SK-MEL-28, with SK-OV-3, with SW-620 and in the assay with UACC-257 was > 100 µM (inactive) in each case. In the assay on UACC-62, the GI50 is > 100 µM (inactive).
